Measured values taken from patent publication US9963453B2, “Substituted pyrazino[1,2-a]indoles as sigma receptor activity modulators” (LABORATORIOS DEL DR. ESTEVE S.A., priority 2013, dated 2018).
Where a name gives a salt, the structure may show the parent alone.

biological target: human sigma 1 receptor (Homo sapiens (Human), UniProt Q99720); experiment: Human Sigma 1 Receptor Radioligand Assay; assay type: binding; details: transfected HEK-293 membranes, 5 nM [3H](+)-pentazocine as radioligand, 37° C., 120 minutes
Sequence (Q99720 whole entry): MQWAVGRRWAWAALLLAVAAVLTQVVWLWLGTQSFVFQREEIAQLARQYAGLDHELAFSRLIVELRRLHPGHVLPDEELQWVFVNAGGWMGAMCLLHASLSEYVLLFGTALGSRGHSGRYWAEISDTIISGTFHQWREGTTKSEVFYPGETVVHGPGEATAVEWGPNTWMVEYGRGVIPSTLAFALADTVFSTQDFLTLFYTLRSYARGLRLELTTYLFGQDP
Description: Human Sigma 1 Receptor Radioligand Assay
To investigate binding properties of sigma 1 receptor ligands to human sigma 1 receptor, transfected HEK-293 membranes and [^3H](+)-pentazocine (Perkin Elmer, NET-1056), as the radioligand, were used. The assay was carried out with 7 μg of membrane suspension, 5 nM of [^3H](+)-pentazocine in either absence or presence of either buffer or 10 μM Haloperidol for total and non-specific binding, respectively. Binding buffer contained Tris-HCl 50 mM at pH 8. Plates were incubated at 37° C. for 120 minutes. After the incubation period, the reaction mix was then transferred to MultiScreen HTS, FC plates (Millipore), filtered and plates were washed 3 times with ice-cold 10 mM TrisHCL (pH7.4). Filters were dried and counted at approximately 40% efficiency in a MicroBeta scintillation counter (Perkin-Elmer) using EcoScint liquid scintillation cocktail.

Ki	SMILES
84.3 nM	C[C@@H](C(=O)N1CCN2c3ccccc3C[C@@H]2C1)N1CCN(C)CC1 [Example 33, (S)-2-(4-methylpiperazin-1-yl)-1-((R)-3,4,10,10a-tetrahydropyrazino[1,2-a]indol-2(1H)-yl)propan-1-one]
241 nM	CCN(CC)CCNC(C)C(=O)N1CCn2c(cc3ccccc32)C1 (stereo not drawn) [Example 30, 2-(2-(diethylamino)ethylamino)-1-(3,4-dihydropyrazino[1,2-a]indol-2(1H)-yl)propan-1-one]
71.6 nM	C[C@H](C(=O)N1CCN2c3ccccc3C[C@@H]2C1)N1CCN(C2CCCCC2)CC1 [Example 54, (R)-2-(4-cyclohexylpiperazin-1-yl)-1-((R)-3,4,10,10a-tetrahydropyrazino[1,2-a]indol-2(1H)-yl)propan-1-one]
55.9 nM	C[C@@H](C(=O)N1CCn2c(cc3ccccc32)C1)N1CCN(C)CC1 [Example 19, (S)-1-(3,4-dihydropyrazino[1,2-a]indol-2(1H)-yl)-2-(4-methylpiperazin-1-yl)propan-1-one]
59.9 nM	C[C@H](C(=O)N1CCN2c3ccccc3C[C@H]2C1)N1CCN(C2CCCCC2)CC1 [Example 51, (R)-2-(4-cyclohexylpiperazin-1-yl)-1-((S)-3,4,10,10a-tetrahydropyrazino[1,2-a]indol-2(1H)-yl)propan-1-one]
10.9 nM	O=C(CCN1CCCCCC1)N1CCn2c(cc3ccccc32)C1 [Example 17, 3-(azepan-1-yl)-1-(3,4-dihydropyrazino[1,2-a]indol-2(1H)-yl)propan-1-one]
175 nM	CN1CCN(C(C)(C)C(=O)N2CCN3c4ccccc4CC3C2)CC1 (stereo not drawn) [Example 44, 2-methyl-2-(4-methylpiperazin-1-yl)-1-(3,4,10,10a-tetrahydropyrazino[1,2-a]indol-2(1H)-yl)propan-1-one]
14.4 nM	O=C(CN1CCC(Cc2ccccc2)CC1)N1CCn2c(cc3ccccc32)C1 [Example 6, 2-(4-benzylpiperidin-1-yl)-1-(3,4-dihydropyrazino[1,2-a]indol-2(1H)-yl)ethanone hydrochloride]
500 nM	CC(C(=O)N1CCn2c(cc3ccccc32)C1)N1CCC(N2CCCCC2)CC1 (stereo not drawn) [Example 37, 2-(1,4′-bipiperidin-1′-yl)-1-(3,4-dihydropyrazino[1,2-a]indol-2(1H)-yl)propan-1-one]
129 nM	CC(C(=O)N1CCn2c(cc3ccccc32)C1)N1CCCCC1 (stereo not drawn) [Example 9, 1-(3,4-dihydropyrazino[1,2-a]indol-2(1H)-yl)-2-(piperidin-1-yl)propan-1-one]
427 nM	CCC(C(=O)N1CCn2c(cc3ccccc32)C1)N(C)CCN(C)C (stereo not drawn) [Example 39, 1-(3,4-dihydropyrazino[1,2-a]indol-2(1H)-yl)-2-((2-(dimethylamino)ethyl)(methyl)amino)butan-1-one]
24.8 nM	CC(C(=O)N1CCn2c(cc3ccccc32)C1)N1CCCCCC1 (stereo not drawn) [Example 7, 2-(azepan-1-yl)-1-(3,4-dihydropyrazino[1,2-a]indol-2(1H)-yl)propan-1-one]
73 nM	CC(CN1CCN(C)CC1)C(=O)N1CCn2c(cc3ccccc32)C1 (stereo not drawn) [Example 41, 1-(3,4-dihydropyrazino[1,2-a]indol-2(1H)-yl)-2-methyl-3-(4-methylpiperazin-1-yl)propan-1-one]
292 nM	CN1CCN(CCCC(=O)N2CCn3c(cc4ccccc43)C2)CC1 [Example 22, 1-(3,4-dihydropyrazino[1,2-a]indol-2(1H)-yl)-4-(4-methylpiperazin-1-yl)butan-1-one]
251 nM	C[C@H](CC(=O)N1CCn2c(cc3ccccc32)C1)N1CCN(C)CC1 [Example 50, (R)-1-(3,4-dihydropyrazino[1,2-a]indol-2(1H)-yl)-3-(4-methylpiperazin-1-yl)butan-1-one]
94.7 nM	C[C@@H](C(=O)N1CCN2c3ccccc3C[C@H]2C1)N1CCN(C2CCCCC2)CC1 [Example 53, (S)-2-(4-cyclohexylpiperazin-1-yl)-1-((S)-3,4,10,10a-tetrahydropyrazino[1,2-a]indol-2(1H)-yl)propan-1-one]
49.5 nM	C[C@H](CN1CCN(C)CC1)C(=O)N1CCn2c(cc3ccccc32)C1 [Example 47, (R)-1-(3,4-dihydropyrazino[1,2-a]indol-2(1H)-yl)-2-methyl-3-(4-methylpiperazin-1-yl)propan-1-one]
56.5 nM	C[C@@H](C(=O)N1CCN2c3ccccc3C[C@H]2C1)N1CCN(C)CC1 [Example 34, (S)-2-(4-methylpiperazin-1-yl)-1-((S)-3,4,10,10a-tetrahydropyrazino[1,2-a]indol-2(1H)-yl)propan-1-one]
123 nM	CC(C(=O)N1CCn2c(cc3cc(F)ccc32)C1)N1CCN(C)CC1 (stereo not drawn) [Example 26, 1-(8-fluoro-3,4-dihydropyrazino[1,2-a]indol-2(1H)-yl)-2-(4-methylpiperazin-1-yl)propan-1-one]
105 nM	CC(C(=O)N1CCn2c(cc3ccccc32)C1)N1CCN(C)CC1 (stereo not drawn) [Example 1, 1-(3,4-dihydropyrazino[1,2-a]indol-2(1H)-yl)-2-(4-methylpiperazin-1-yl)propan-1-one]

Ki	SMILES
25 nM	CC(C(=O)N1CCn2c(cc3ccccc32)C1)N1CCC(Cc2ccccc2)CC1 (stereo not drawn) [Example 10, 2-(4-benzylpiperidin-1-yl)-1-(3,4-dihydropyrazino[1,2-a]indol-2(1H)-yl)propan-1-one]
234 nM	C[C@H](C(=O)N1CCN2c3ccccc3C[C@H]2C1)N1CCN(C)CC1 [Example 32, (R)-2-(4-methylpiperazin-1-yl)-1-((S)-3,4,10,10a-tetrahydropyrazino[1,2-a]indol-2(1H)-yl)propan-1-one]
21.9 nM	O=C(CCCN1CCCCCC1)N1CCn2c(cc3cc(F)ccc32)C1 [Example 21, 4-(azepan-1-yl)-1-(8-fluoro-3,4-dihydropyrazino[1,2-a]indol-2(1H)-yl)butan-1-one]
125 nM	CCN1CCN(C(C)C(=O)N2CCn3c(cc4cc(F)ccc43)C2)CC1 (stereo not drawn) [Example 29, 2-(4-ethylpiperazin-1-yl)-1-(8-fluoro-3,4-dihydropyrazino[1,2-a]indol-2(1H)-yl)propan-1-one]
91.7 nM	C[C@@H](CC(=O)N1CCn2c(cc3ccccc32)C1)N1CCN(C)CC1 [Example 49, (S)-1-(3,4-dihydropyrazino[1,2-a]indol-2(1H)-yl)-3-(4-methylpiperazin-1-yl)butan-1-one]
68.2 nM	CC(CC(=O)N1CCn2c(cc3ccccc32)C1)N1CCN(C)CC1 (stereo not drawn) [Example 3, 1-(3,4-dihydropyrazino[1,2-a]indol-2(1H)-yl)-3-(4-methylpiperazin-1-yl)butan-1-one]
26.2 nM	Cc1c2n(c3ccccc13)CCN(C(=O)CN1CCC(Cc3ccccc3)CC1)C2 [Example 15, 2-(4-benzylpiperidin-1-yl)-1-(10-methyl-3,4-dihydropyrazino[1,2-a]indol-2(1H)-yl)ethanone]
75.5 nM	CC[C@@H](C(=O)N1CCn2c(cc3ccccc32)C1)N1CCN(C)CC1 [Example 46, (S)-1-(3,4-dihydropyrazino[1,2-a]indol-2(1H)-yl)-2-(4-methylpiperazin-1-yl)butan-1-one]
14.6 nM	O=C(CN1CCCCCC1)N1CCn2c(cc3cc(F)ccc32)C1 [Example 12, 2-(azepan-1-yl)-1-(8-fluoro-3,4-dihydropyrazino[1,2-a]indol-2(1H)-yl)ethanone]
151 nM	CN(C)CCCC(=O)N1CCN2c3ccccc3CC2C1 (stereo not drawn) [Example 43, 4-(dimethylamino)-1-(3,4,10,10a-tetrahydropyrazino[1,2-a]indol-2(1H)-yl)butan-1-one]
118 nM	CC(C(=O)N1CCN2c3ccccc3CC2C1)N1CCN(C)CC1 (stereo not drawn) [Example 25, 2-(4-methylpiperazin-1-yl)-1-(3,4,10,10a-tetrahydropyrazino[1,2-a]indol-2(1H)-yl)propan-1-one]
22.2 nM	O=C(CCCN1CCCCC1)N1CCn2c(cc3cc(F)ccc32)C1 [Example 16, 1-(8-fluoro-3,4-dihydropyrazino[1,2-a]indol-2(1H)-yl)-4-(piperidin-1-yl)butan-1-one]
10.2 nM	O=C(CN1CCCCCC1)N1CCn2c(cc3ccccc32)C1 [Example 4, 2-(azepan-1-yl)-1-(3,4-dihydropyrazino[1,2-a]indol-2(1H)-yl)ethanone hydrochloride]
96.1 nM	CN1CCN(C(C)(C)C(=O)N2CCn3c(cc4ccccc43)C2)CC1 [Example 2, 1-(3,4-dihydropyrazino[1,2-a]indol-2(1H)-yl)-2-methyl-2-(4-methylpiperazin-1-yl)propan-1-one]
39.8 nM	O=C(CN1CCCCC1)N1CCn2c(cc3ccccc32)C1 [Example 5, 1-(3,4-dihydropyrazino[1,2-a]indol-2(1H)-yl)-2-(piperidin-1-yl)ethanone hydrochloride]
60.8 nM	CN(C)CCCC(=O)N1CCn2c(cc3ccccc32)C1 [Example 11, 1-(3,4-dihydropyrazino[1,2-a]indol-2(1H)-yl)-4-(dimethylamino)butan-1-one]
28.8 nM	O=C(CCCN1CCCCC1)N1CCn2c(cc3ccccc32)C1 [Example 20, 1-(3,4-dihydropyrazino[1,2-a]indol-2(1H)-yl)-4-(piperidin-1-yl)butan-1-one]
25.6 nM	CC(C(=O)N1CCn2c(cc3cc(F)ccc32)C1)N1CCN(C2CCCCC2)CC1 (stereo not drawn) [Example 27, 2-(4-cyclohexylpiperazin-1-yl)-1-(8-fluoro-3,4-dihydropyrazino[1,2-a]indol-2(1H)-yl)propan-1-one]
89.3 nM	CCC(C(=O)N1CCn2c(cc3ccccc32)C1)N1CCN(C)CC1 (stereo not drawn) [Example 38, 1-(3,4-dihydropyrazino[1,2-a]indol-2(1H)-yl)-2-(4-methylpiperazin-1-yl)butan-1-one]
